“And” between values parts separate entries of the source, which are not always exact repeats. Equal values may be shown once.
Legend:
Assay type in all cases: cell-based
[1] = target: T1, vasopressin-2 receptor (AVP2R) (Homo sapiens, UniProt P30518); assay: AVP2R cAMP HTRF accumulation assay; conditions: CHO-K1 AVP2R cells; for AVP2R PAM (cAMP) Score (activity score = normalized Emax × pEC50): PAM format; for EC50 / Emax: PAM format with vasopressin, original hits: agonist and PAM data combined, average ± SD
T1 construct: expressed in transfected cells; host or cells: CHO-K1 (PAM format); HEK-293 (agonist format)
Procedure: Possible off-target biological effects. […] Here, we tested them at the vasopressin-2 receptor (AVP2R), representing a class A GPCR structurally related to CCK1R, which is coupled to Gs. The activity at AVP2R was tested using AVP2R-overexpressing CHO-K1 (PAM format) or HEK-293 (agonist format) cells, stimulating the cells with vasopressin. Original hits were tested in both agonist and PAM formats. Since all recognized compound responses were present in both formats, we continued to screen analogs in only the PAM format (also able to capture agonist effects) in CHO-K1 AVP2R cells for potential enhanced sensitivity. The dose–response data sets for original hits were combined, as the PAM and agonist effects were indistinguishable. In brief, arginine vasopressin (AVP) orthosteric stimulator dilutions and ligand and compound dose–response titrations in DMSO were transferred onto a 1536-well plate (Corning #3725) using an Echo liquid handler (Labcyte). Thawed cryopreserved cell stocks were diluted in stimulation buffer consisting of HBSS (Hank’s Balanced Salt Solution with Ca^2+ and Mg^2+, Gibco #24020117), 5 mM HEPES (hydroxyethyl piperazineethanesulfonic acid), 0.5 mM IBMX (3-isobutyl-1-methylxanthine, Sigma-Aldrich), and 0.075% BSA (7.5% DTPA-purified bovine serum albumin, PerkinElmer). The resulting cell suspension was added to the microplate and incubated with test compounds at room temperature for 30 min. Then, the detection reagents from the Cisbio cAMP Gs Dynamic HTRF detection kit were added. The plate was kept at room temperature for 30 min and read on a PHERAstar FSX microplate reader. Dose–response curves were performed as 16-point 2-fold dilutions in duplicate in at least two independent experiments.

[2] = target: T2, CCK1R (Homo sapiens, UniProt P32238); assay: IP-One accumulation TR-FRET assay, PAM format, HEK-293 CCK1R cells; parameters: expressed in transfected cells; host or cells: HEK-293; conditions: for Emax: HEK293, relative to CCK control; for Emax / CCK1R PAM (IP-One) Score (activity score = normalized Emax × pEC50) / EC50: HEK-293 CCK1R cells; for Emax / CCK1R PAM (IP-One) Score (activity score = normalized Emax × pEC50): PAM format; for Emax / EC50: average ± SD; for EC50: PAM format with EC20 CCK; for CCK1R IP-One activity (in words): PAM and agonist formats
T2 sequence (P32238 1-428): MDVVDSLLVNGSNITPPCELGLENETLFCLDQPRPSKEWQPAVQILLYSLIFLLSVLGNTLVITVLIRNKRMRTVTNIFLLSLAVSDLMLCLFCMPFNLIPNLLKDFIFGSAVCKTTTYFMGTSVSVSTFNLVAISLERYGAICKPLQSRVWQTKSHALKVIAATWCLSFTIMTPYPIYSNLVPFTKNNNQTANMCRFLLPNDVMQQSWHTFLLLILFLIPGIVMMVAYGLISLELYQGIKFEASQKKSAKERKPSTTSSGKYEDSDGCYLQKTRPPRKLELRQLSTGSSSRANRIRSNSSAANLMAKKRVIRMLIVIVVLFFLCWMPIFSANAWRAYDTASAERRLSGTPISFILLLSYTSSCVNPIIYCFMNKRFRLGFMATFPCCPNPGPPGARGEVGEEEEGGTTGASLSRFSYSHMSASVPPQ
Procedure: (§1) For structure–activity relationship studies, we performed myo-inositol-1-phosphate (IP-One) accumulation assays with TR-FRET technology applied to the HEK-293 cell line overexpressing CCK1Rs, as we had described in our high throughput screening effort. In brief, thawed cryopreserved cell stocks were re-suspended in IP-One assay media consisting of phenol-red free DMEM (Corning, Corning, NY, USA, #17-205-CV) with 10% FBS, 1% penicillin (10,000 units)/streptomycin (10 mg) (Pen/Strep, Thermo Fisher Scientific, Waltham, MA, USA, Gibco #15140122), and 1% L-glutamine (200 mM) (Gibco #25030081) and diluted to required cell densities. Then, the cell suspension was dispensed into a 1536-well tissue culture microplate (Corning, #3727), and the plate was incubated overnight at 37 °C and 5% CO^2. After 16–20 h, DMSO or compounds were added with an Echo liquid handler (Labcyte, San Jose, CA, USA), resulting in a top final compound concentration of 50 µM diluted 2-fold for 16-point dose–responses. For the positive allosteric modulator (PAM) format, orthosteric stimulator (CCK) dilutions for control wells were prepared in assay media containing 150 mM lithium chloride (LiCl, 50 mM final, Sigma-Aldrich, St Louis, MO, USA, #L7026). After a 30 min incubation of test compounds at 37 °C and 5% CO2, orthosteric stimulator dilutions (for PAM format) or equivalent dilutions of DMSO (for agonist format) were added to designated wells using BioRaptr (Beckman Coulter, Brea, CA, USA). In addition, CCK control ligand dilutions were included on each test plate. After that, the plate was incubated for 1 h at 37 °C and 5% CO^2 and equilibrated to room temperature. Detection reagents from the IP-One Gq detection kit from Cisbio (Cisbio US Inc., Bedford, MA, USA, #62IPAPEJ) were added, and after 1 h at RT, IP-One content was measured with a PHERAstar FSX microplate reader (BMG Labtech, Ortenberg, Germany). Control ligand dose–responses were analyzed using GraphPad Prism 9.3.1 (San Diego, CA, USA) to validate adequate control and test well concentrations for positive allosteric modulation (PAM) and agonist formats. Dose–response curves were performed as 16-point 2-fold dilutions in duplicates in at least three independent experiments. Large data sets were uploaded and analyzed with CBIS (Chemical and Biology Information System software, ChemInnovation Software, Inc., San Diego, CA, USA). Further data analysis for detailed SAR studies was conducted using the D360 software (Certara).
(§2) The potency and efficacy data for these compounds were used to calculate their activity scores using the following formula: Activity Score = normalized Emax × pEC50. Normalized Emax represents the efficacy of the compound as a fractional response relative to that of the CCK control ligand. pEC50 represents the positive logarithmic value of compound EC50 concentrations in (M).

[3] = target: T2, CCK1R; assay: IP-One accumulation TR-FRET assay, agonist format, HEK-293 CCK1R cells; parameters: expressed in transfected cells; host or cells: HEK-293; conditions: for Emax: HEK293, relative to CCK control, average ± SD, read-out: CCK1R Ago (IP-One) Emax
Procedure: as §1, §2

T1 sequence (P30518 whole entry): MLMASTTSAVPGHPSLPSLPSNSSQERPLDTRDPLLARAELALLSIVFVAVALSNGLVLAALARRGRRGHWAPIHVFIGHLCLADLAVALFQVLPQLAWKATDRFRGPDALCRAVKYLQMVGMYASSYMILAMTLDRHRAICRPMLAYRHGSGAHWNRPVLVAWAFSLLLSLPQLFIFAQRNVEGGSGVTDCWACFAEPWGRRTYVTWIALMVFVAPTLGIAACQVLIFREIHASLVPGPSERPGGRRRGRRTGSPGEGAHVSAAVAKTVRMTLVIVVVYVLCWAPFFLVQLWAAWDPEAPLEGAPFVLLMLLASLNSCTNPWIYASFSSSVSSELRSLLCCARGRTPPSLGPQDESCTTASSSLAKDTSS

Row | Structure (SMILES) | AVP2R PAM (cAMP) Score (activity score = normalized Emax × pEC50) [1] | EC50 [1] [µM] | Emax [1] [%] | Emax [2] [%] | CCK1R PAM (IP-One) Score (activity score = normalized Emax × pEC50) [2] | EC50 [2] [µM] | CCK1R Ago (IP-One) Score (activity score = normalized Emax × pEC50) [3] | Emax [3] [%] | CCK1R IP-One activity (in words) [2]
1 | c1nc(N2CCNCC2)c2sc3nc(N4CCOCC4)c4c(c3c2n1)CCCC4 [CMP-3] | 1.6 and 1.64 | 14.8 ± 10.3 | 34 ± 5.3 | 60 ± 23 | 2.8 and 2.77 | 16.6 ± 15.9 |  |  | 
2 | CN(C)CCNc1ncnc2c1sc1nc(N3CCOCC3)c3c(c12)CCCC3 [CMP-4] | 1.2 | 12.8 ± 14 | 24.5 ± 7.1 | 62 ± 33 | 2.71 | 14.4 ± 1.5 | 0 | 0 | 
3 | CCCCc1nc2sc3c(NCCCO)ncnc3c2c2c1CCC2 [CMP-5] | 1.6 and 1.61 | 8.1 ± 8.5 | 32 ± 11 | 53 ± 6 | 2.7 and 2.66 | 7.5 ± 2.9 |  |  | 
4 | CCN(CC)CCNc1ncnc2c1sc1nc(N3CCCCC3)c3c(c12)CCCC3 [CMP-6] | 1.7 and 1.67 | 9.9 ± 0.5 | 33 ± 1 | 57 ± 27 | 2.6 and 2.58 | 13.8 ± 3.2 | 0 | 0 | 
5 | CCCc1nc2sc3c(NCCN(CC)CC)ncnc3c2c2c1CCCC2 [CMP-7] | 1.6 and 1.61 | 6.5 ± 4.2 | 31 ± 2 | 48 ± 11 | 2.4 and 2.39 | 8 ± 2.1 | 0 |  | 
6 | CCN(CC)CCCNc1ncnc2c1oc1nc(CC(C)C)c3c(c12)CCC3 [CMP-10] | 2.2 and 2.15 | 21.7 ± 11.3 | 46 ± 9 | 51 ± 16 | 2.3 and 2.28 | 22.5 ± 9 |  |  | 
7 | CCCc1nc2oc3c(N4CCNCC4)ncnc3c2c2c1CCCC2 [CMP-12] | 3.3 and 3.28 | 11.4 ± 3.6 | 66 ± 3 | 46 ± 7 | 2.2 and 2.23 | 14.1 ± 4.3 |  |  | 
8 | CN(C)CCCNc1nnnc2c1sc1nc(N3CCOCC3)c3c(c12)CCCC3 [CMP-17] | 1.2 | 22.4 ± 9.2 | 26 ± 1 | 50 ± 32 | 2.0 and 1.99 | 23 ± 17.9 |  |  | 
9 | CN1CCN(c2ncnc3c2sc2nc(N4CCOCC4)c4c(c23)CCCC4)CC1 [CMP-19] |  |  |  | 51 ± 43 | 1.9 and 1.94 | 18.2 ± 8.6 | 0 | 0 | 
10 | CC(C)Cc1nc2oc3c(NCCN(C)C)ncnc3c2c2c1CCCC2 [CMP-25] |  | 8.6 ± 5.4 | 74 ± 12 | 38 ± 11 | 1.79 | 14.5 ± 5.3 |  |  | 
11 | c1ccc(-c2nc3sc4c(NCCN5CCOCC5)ncnc4c3c3c2CCCC3)cc1 [CMP-26] | 0.9 and 0.87 | 3.7 ± 0.5 | 16 ± 4 | 41 ± 15 | 1.8 and 1.76 | 30.2 ± 11.2 |  |  | 
12 | CCCc1nc2oc3c(N(C)CCO)ncnc3c2c2c1CCCC2 [CMP-39] | 0 |  | 0 |  |  |  | 0 | 0 | 
13 | CN(C)CCCNc1ncnc2c1sc1nc(N3CCOCC3)c3c(c12)CCC3 [CMP-43] |  |  |  |  |  |  | 0 | 0 | showed no agonist or PAM activity
14 | Sc1nnnc2c1sc1nc(N3CCOCC3)c3c(c12)CCCC3 [CMP-52] |  |  |  | 0 | 0 |  | 0 | 0 | displayed no effects
15 | CC(C)c1nc2sc3c(NCCN4CCOCC4)ncnc3c2c2c1CCCC2 [CMP-54] | 2.0 and 1.96 | 26.2 ± 2.4 | 43 ± 7 |  |  |  | 0 |  | 
16 | CCCc1nc2sc3c(NCCCO)ncnc3c2c2c1CCC2 [CMP-56] | 0 |  | 0 |  |  |  | 0 | 0 | 
17 | CCCCNc1ncnc2c1sc1nc(CCC)c3c(c12)CCCC3 [CMP-57] | 0 |  | 0 |  |  |  | 0 | 0 | 
18 | CCCc1nc2oc3c(NCCCO)ncnc3c2c2c1CCCC2 [CMP-58] | 0 |  | 0 |  |  |  | 0 | 0 | 
19 | CCCc1nc2oc3c(NCc4ccncc4)ncnc3c2c2c1CCCC2 [CMP-60] | 0 |  | 0 |  |  |  | 0 | 0 | 
20 | Cc1nc2sc3c(NCCN4CCOCC4)ncnc3c2c2c1CCCC2 [CMP-61] | 0 |  |  |  |  |  | 0 |  | 
21 | COc1ccc(CCNc2ncnc3c2oc2nc(C(C)C)c4c(c23)CCC4)cc1OC [CMP-62] | 0 |  | 0 |  |  |  | 0 | 0 | 
22 | CC(C)c1nc2oc3c(N4CCC(Cc5ccccc5)CC4)ncnc3c2c2c1CCC2 [CMP-63] | 0 |  | 0 |  |  |  | 0 | 0 | 

— PMC9964746, “Mechanism of Action and Structure–Activity Relationships of Tetracyclic Small Molecules Acting as Universal Positive Allosteric Modulators of the Cholecystokinin Receptor” (Membranes, 2023)
